The target in this experiment is T1, human GPR40 (Homo sapiens, UniProt O14842).
T1 construct: expressed in transfected cells; host or cells: CHO-K1
T1 sequence (O14842 whole entry): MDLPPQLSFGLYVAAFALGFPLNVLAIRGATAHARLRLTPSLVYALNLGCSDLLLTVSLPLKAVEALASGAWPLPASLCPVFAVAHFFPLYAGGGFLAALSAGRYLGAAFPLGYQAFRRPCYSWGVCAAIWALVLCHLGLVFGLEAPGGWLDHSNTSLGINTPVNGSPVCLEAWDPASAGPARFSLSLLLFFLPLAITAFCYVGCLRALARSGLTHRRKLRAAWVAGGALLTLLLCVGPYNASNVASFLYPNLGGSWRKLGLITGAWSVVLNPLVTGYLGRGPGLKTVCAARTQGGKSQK
Kind of experiment: Induction of Ca2+ (calcium flux assay) using human GPR40 expression cell line. Particulars: read-out: EC0.5. In kind it is cell-based. As for the experimental part:
Evaluation of the Test Compounds for Induction of Ca^2+ Using Human GPR40 Expression Cell Line
The cell line expressing human GPR40 was generated by transfection of the GPR40 expression vector into CHO-K1 cell, and used in the following calcium flux assay.
The cell line was cultured in cell-culture medium (F-12 (Invitrogen) supplemented with 10% (v/v) FBS (Fetal Bovine Serum; Invitrogen), 0.5 mg/ml Geneticin (Invitrogen) and 1% (v/v) Antibiotic-Antimycotic solution (Invitrogen)) under the condition of 5% CO2 and 37° C. For calcium flux assay, the cells were diluted with the cell-culture medium to a concentration of 5×10^5 cells/ml, and the diluted cell suspension was dispensed in amount of 100 μl/well to a 96-well transparent bottom black polystyrene cell culture plate (Corning) and then cultured for 24 hours. The following concentrations of test compounds were added to these cells, and then the changes in intracellular calcium concentration were measured by FlexStation II384 (Molecular Devices). The following solution was prepared before the measurement.
First, a buffer solution for assay was prepared for use in the manufacture of fluorescent dye solution. This buffer solution was prepared by adding 1M HEPES solution (Invitrogen) to HBSS (Hanks' Balanced Salt Solution) (Invitrogen) and then adding 1M NaOH (Nacalai Tesque) to adjust pH to 7.4. Then the fluorescent dye solution was prepared according to the manufacturer's instruction attached to Calcium 5 Assay Kit (Molecular Devices), and the final DMSO concentration was adjusted to 2%.
The fluorescent dye solution was added in an amount of 100 μl/well to supernatant of the cell culture plate cultured for 24 hours. The plate was cultured for 1 hour under the condition of 5% CO2 and 37° C. so that the fluorescent dye was inserted into the cell.
Test compounds (i.e., the compounds prepared in the Examples) dissolved in dimethyl sulfoxide (DMSO ACROS) were diluted 200-fold in the buffer solution for assay to prepare compound solutions corresponding to the respective concentrations. […] 50 μl of the prepared sample solutions was added to each well of 96-well polypropylene plates (NUNC), and thereby a compound plate was prepared. Finally, the compound plate and the cell culture plate cultured for 1 hour with the fluorescent dye were placed in FlexStation II384.
After the above pre-treatment, the change in the intracellular calcium concentration when each concentration of the test compound solutions was added at 50 μl was measured by FlexStation II^384.
Then, the relative activity values depending on the concentration of the compound were plotted using Prism 4 software (GraphPad) to calculate the EC0.5 value.
As to `O=C(O)C[C@@H](c1ccc(OCc2ccc3cnn(Cc4ccc(F)cc4)c3c2)cc1)c1ccon1` [Example 86, (S)-3-{4-[1-(4-fluoro-benzyl)-1H-indazol-6-ylmethoxy]-phenyl}-3-isoxazol-3-yl-propanoic acid], the EC50 was 10 nM. As for `O=C(O)CC1COc2cc(OCc3ccc4cnn(Cc5ccccc5)c4c3)ccc21` (stereo not shown) [Example 105, [6-(1-benzyl-1H-indazol-6-ylmethoxy)-2,3-dihydro-benzofuran-3-yl]-acetic acid], the EC50 was found to be 400 nM. In the case of `CC#C[C@@H](CC(=O)O)c1ccc(OCc2ccc3c(cnn3CCCS(C)(=O)=O)c2)cc1` [Example 152, (S)-3-{4-[1-(3-methanesulfonyl-propyl)-1H-indazol-5-ylmethoxy]-phenyl}-hex-4-ynoic acid] it was no less than 500 nM. Next, `CC#C[C@@H](CC(=O)O)c1ccc(OCc2cccc3c2ccn3Cc2ccccc2)cc1` [Example 31, (S)-3-[4-(1-benzyl-1H-indol-4-ylmethoxy)-phenyl]-hex-4-ynoic acid]: 30 nM. Next, `CC#C[C@@H](CC(=O)O)c1ccc(OCc2ccc3ccn(Cc4cscn4)c3c2C)cc1` [Example 56, (S)-3-[4-(7-methyl-1-thiazol-4-ylmethyl-1H-indol-6-ylmethoxy]-phenyl}-hex-4-ynoic acid]: 1 to 50 nM; `CC#C[C@@H](CC(=O)O)c1ccc(OCc2ccc3c(COC)nn(CC(C)C)c3c2C)cc1` [Example 196, (S)-3-[4-(1-isobutyl-3-methoxymethyl-7-methyl-1H-indazol-6-ylmethoxy)-phenyl]-hex-4-ynoic acid]: 5 nM.

As for `CC(CC(=O)O)c1ccc(OCc2ccc3cnn(Cc4ccccc4)c3c2)cc1` (stereo not shown) [Example 117, 3-[4-(1-benzyl-1H-indazol-6-ylmethoxy)-phenyl]-butyric acid], the EC50 came to 50 nM. For `CC(C)n1ccc2ccc(CNc3ccc(CCC(=O)O)cc3)cc21` [Example 1], the EC50 was 100 nM. Next, `CC#C[C@@H](CC(=O)O)c1ccc(OCc2ccc3onc(CC(C)C)c3c2)cc1` [Example 181, (S)-3-[4-(3-isobutyl-benzo[d]isoxazol-5-ylmethoxy)-phenyl]-hex-4-ynoic acid]: 6 nM; `CC(CC(=O)O)c1ccc(OCc2ccc3c(cnn3Cc3ccccc3)c2)cc1` (stereo not shown) [Example 158, 3-[4-(1-benzyl-1H-indazol-5-ylmethoxy)-phenyl]-butyric acid]: 50 nM. In the case of `CC#C[C@@H](CC(=O)O)c1ccc(OCc2ccc3ccn(-c4ccc(F)cc4C)c3c2)cc1` [Example 26, (S)-3-{4-[1-(4-fluoro-2-methyl-phenyl)-1H-indol-6-ylmethoxy]-phenyl}-hex-4-ynoic acid] it was 20 nM; in that of `CC#C[C@@H](CC(=O)O)c1ccc(OCc2ccc3c(CN4CCCCC4)nn(CC(C)C)c3c2C)cc1` [Example 218, (S)-3-[4-(1-isobutyl-7-methyl-3-piperidin-1-ylmethyl-1H-indazol-6-ylmethoxy)-phenyl]-hex-4-ynoic acid], 14 nM; in that of `O=C(O)C[C@@H](c1ccc(OCc2ccc3cn[nH]c3c2)cc1)c1ccon1` [Example 102, (S)-3-[4-(1H-indazol-6-ylmethoxy)-phenyl]-3-isoxazol-3-yl-propanoic acid], 400 nM. For `CC#C[C@@H](CC(=O)O)c1ccc(OCc2ccc3c(cnn3CC3CCCCC3)c2)cc1` [Example 138, (S)-3-[4-(1-cyclohexylmethyl-1H-indazol-5-ylmethoxy)-phenyl]-hex-4-ynoic acid], the EC50 stood at 10 nM. Next, `CC#C[C@@H](CC(=O)O)c1ccc(OCc2ccc3ccn(Cc4ccc(C)nc4)c3c2C)cc1` [Example 81, (S)-3-{4-[7-methyl-1-(6-methyl-pyridin-3-ylmethyl)-1H-indol-6-ylmethoxy]-phenyl}-hex-4-ynoic acid]: 1 to 50 nM; `CC#C[C@@H](CC(=O)O)c1ccc(OCc2ccc3c(C)nn(CC(C)C)c3c2)cc1` [Example 178, (S)-3-[4-(1-isobutyl-3-methyl-1H-indazol-6-ylmethoxy)-phenyl]-hex-4-ynoic acid]: 1 to 50 nM.
